In PubChem BioAssay AID250 (DTP/NCI, 2004):
Where “and” joins values, the source holds several entries; their conditions need not be identical. Equal entries are not always repeated. Inconclusive results and toxic doses are left out. The calls were made as follows: active = survival T/C of 150% or more; inactive = T/C below 125% in these data.

Tested on: BDF1 mice, L1210 leukemia sc, survival T/C
Assay: NCI In Vivo Anticancer Drug Screen. Data for tumor model L1210 Leukemia (subcutaneous) in B6D2F1 (BDF1) mice
Conditions: endpoint: median survival time, higher = longer survival
Outline: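 Mice carrying transplanted tumors received test compounds, and survival or tumor size was measured. Values are the treated-group measurement (T) divided by that of the vehicle-treated control group (C).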

[1] = dose: 65.0 mg/kg/injection, schedule: Q01DX Z (sc), vehicle: saline
[2] = dose: 108.0 mg/kg/injection, schedule: Q01DX Z (sc), vehicle: saline
[3] = dose: 180.0 mg/kg/injection, schedule: Q01DX Z (sc), vehicle: saline
[4] = dose: 300.0 mg/kg/injection, schedule: Q01DX Z (sc), vehicle: saline

Measured: T/C

O=C(O)c1[nH]c(=O)[nH]c(=O)c1F
active: dose: 8.0 mg/kg/injection, schedule: Q01DX Z (sc), vehicle: saline 166 % of control | dose: 10.0 mg/kg/injection, schedule: Q01DX Z (sc), vehicle: methylcellulose (MC) 158 % of control | dose: 16.0 mg/kg/injection, schedule: Q01DX Z (sc), vehicle: saline 150 % of control | dose: 20.0 mg/kg/injection, schedule: Q01DX Z (sc), vehicle: methylcellulose (MC) 164 % of control | dose: 32.0 mg/kg/injection, schedule: Q01DX Z (sc), vehicle: saline 166 % of control | dose: 40.0 mg/kg/injection, schedule: Q01DX Z (sc), vehicle: methylcellulose (MC) 176 % of control | dose: 64.0 mg/kg/injection, schedule: Q01DX Z (sc), vehicle: saline 155 % of control | dose: 128.0 mg/kg/injection, schedule: Q01DX Z (sc), vehicle: saline 155 % of control | dose: 256.0 mg/kg/injection, schedule: Q01DX Z (sc), vehicle: saline 150 % of control
inactive: dose: 2.5 mg/kg/injection, schedule: Q01DX Z (sc), vehicle: methylcellulose (MC) 105 % of control

Nc1nc(=S)c2ncn(C3OC(COC(=O)c4ccc(Cl)cc4)C(OC(=O)c4ccc(Cl)cc4)C3OC(=O)c3ccc(Cl)cc3)c2[nH]1 (stereo unspecified)
active: dose: 200.0 mg/kg/injection, schedule: Q01DX Z (sc), vehicle: carboxymethylcellulose (CMC) 150 % of control
inactive: dose: 12.5 mg/kg/injection, schedule: Q01DX Z (sc), vehicle: carboxymethylcellulose (CMC) 100 % of control | dose: 25.0 mg/kg/injection, schedule: Q01DX Z (sc), vehicle: carboxymethylcellulose (CMC) 106 % of control | dose: 50.0 mg/kg/injection, schedule: Q01DX Z (sc), vehicle: carboxymethylcellulose (CMC) 100 % of control | dose: 65.0 mg/kg/injection, schedule: Q01DX Z (sc), vehicle: carboxymethylcellulose (CMC) 100 % of control | dose: 100.0 mg/kg/injection, schedule: Q01DX Z (sc), vehicle: carboxymethylcellulose (CMC) 112 % of control | dose: 108.0 mg/kg/injection, schedule: Q01DX Z (sc), vehicle: carboxymethylcellulose (CMC) 122 % of control

O=c1[nH]c(=O)n(C2OC(CO)C(O)C2O)cc1Br (stereo unspecified)
inactive: dose: 39.0 mg/kg/injection, schedule: Q01DX Z (sc), vehicle: saline 100 % of control | [1] 100 % of control | [2] 100 % of control | [3] 94 % of control and 100 % of control | [4] 100 % of control and 105 % of control | dose: 500.0 mg/kg/injection, schedule: Q01DX Z (sc), vehicle: saline 94 % of control and 100 % of control | dose: 833.0 mg/kg/injection, schedule: Q01DX Z (sc), vehicle: saline 105 % of control | dose: 1388.0 mg/kg/injection, schedule: Q01DX Z (sc), vehicle: saline 94 % of control

N[C@H](C(=O)O)[C@H]1ON=C(Cl)[C@@H]1O
inactive: dose: 8.0 mg/kg/injection, schedule: Q01DX009 (sc), vehicle: saline 111 % of control
active: dose: 32.0 mg/kg/injection, schedule: Q01DX009 (sc), vehicle: saline 150 % of control and 156 % of control | dose: 64.0 mg/kg/injection, schedule: Q01DX009 (sc), vehicle: saline 153 % of control and 156 % of control | dose: 128.0 mg/kg/injection, schedule: Q01DX009 (sc), vehicle: saline 156 % of control and 160 % of control | dose: 256.0 mg/kg/injection, schedule: Q01DX009 (sc), vehicle: saline 157 % of control and 176 % of control | dose: 512.0 mg/kg/injection, schedule: Q01DX009 (sc), vehicle: saline 176 % of control | dose: 1024.0 mg/kg/injection, schedule: Q01DX009 (sc), vehicle: saline 177 % of control

NC(=S)N/N=C/c1ccc(O)cn1
inactive: dose: 8.4 mg/kg/injection, schedule: Q03HX024 (sc), vehicle: none 120 % of control | dose: 50.0 mg/kg/injection, schedule: Q04DX003 (sc), vehicle: other 107 % of control and 110 % of control | dose: 60.0 mg/kg/injection, schedule: Q03HX024 (ip), vehicle: other 100 % of control | [1] 104 % of control | dose: 100.0 mg/kg/injection, schedule: Q04DX003 (ip), vehicle: other 111 % of control | dose: 100.0 mg/kg/injection, schedule: Q04DX003 (sc), vehicle: other 107 % of control and 110 % of control and 111 % of control | [2] 104 % of control | dose: 108.0 mg/kg/injection, schedule: Q04DX003 (sc), vehicle: none 100 % of control | dose: 108.0 mg/kg/injection, schedule: Q04DX003 (sc), vehicle: other 103 % of control and 105 % of control | [3] 104 % of control | dose: 180.0 mg/kg/injection, schedule: Q02DX005 (sc), vehicle: other 99 % of control | dose: 180.0 mg/kg/injection, schedule: Q04DX003 (sc), vehicle: none 100 % of control | dose: 180.0 mg/kg/injection, schedule: Q04DX003 (sc), vehicle: other 104 % of control and 105 % of control | dose: 180.0 mg/kg/injection, schedule: Q11HX006 (sc), vehicle: water 122 % of control | dose: 200.0 mg/kg/injection, schedule: Q04DX003 (ip), vehicle: other 111 % of control | dose: 200.0 mg/kg/injection, schedule: Q04DX003 (sc), vehicle: other 98 % of control and 100 % of control and 116 % of control | [4] 108 % of control | dose: 300.0 mg/kg/injection, schedule: Q02DX005 (sc), vehicle: other 108 % of control | dose: 300.0 mg/kg/injection, schedule: Q04DX003 (sc), vehicle: none 100 % of control | dose: 300.0 mg/kg/injection, schedule: Q04DX003 (sc), vehicle: other 105 % of control and 111 % of control | dose: 300.0 mg/kg/injection, schedule: Q04DX003 (sc), vehicle: water 111 % of control | dose: 300.0 mg/kg/injection, schedule: Q11HX006 (sc), vehicle: water 122 % of control | dose: 400.0 mg/kg/injection, schedule: Q01DX009 (sc), vehicle: other 88 % of control | dose: 400.0 mg/kg/injection, schedule: Q04DX003 (ip), vehicle: other 111 % of control | dose: 400.0 mg/kg/injection, schedule: Q04DX003 (sc), vehicle: other 99 % of control and 100 % of control and 116 % of control | dose: 500.0 mg/kg/injection, schedule: Q02DX005 (sc), vehicle: other 100 % of control and 117 % of control | dose: 500.0 mg/kg/injection, schedule: Q04DX003 (sc), vehicle: none 100 % of control | dose: 500.0 mg/kg/injection, schedule: Q04DX003 (sc), vehicle: other 106 % of control and 111 % of control | dose: 833.0 mg/kg/injection, schedule: Q02DX005 (sc), vehicle: other 105 % of control and 60 % of control | dose: 1388.0 mg/kg/injection, schedule: Q02DX005 (sc), vehicle: other 120 % of control and 60 % of control
active: dose: 10.0 mg/kg/injection, schedule: Q03HX024 (sc), vehicle: other 155 % of control | dose: 20.0 mg/kg/injection, schedule: Q03HX024 (ip), vehicle: other 183 % of control | dose: 20.0 mg/kg/injection, schedule: Q03HX024 (sc), vehicle: other 177 % of control | dose: 23.0 mg/kg/injection, schedule: Q03HX024 (sc), vehicle: none 175 % of control | dose: 30.0 mg/kg/injection, schedule: Q03HX024 (ip), vehicle: other 238 % of control | dose: 30.0 mg/kg/injection, schedule: Q03HX024 (sc), vehicle: other 266 % of control | dose: 39.0 mg/kg/injection, schedule: Q03HX024 (sc), vehicle: none 165 % of control | dose: 65.0 mg/kg/injection, schedule: Q01DX009 (sc), vehicle: other 158 % of control and 166 % of control | dose: 65.0 mg/kg/injection, schedule: Q08DX009 (sc), vehicle: none 150 % of control | dose: 100.0 mg/kg/injection, schedule: Q01DX009 (ip), vehicle: other 150 % of control | dose: 100.0 mg/kg/injection, schedule: Q01DX009 (sc), vehicle: other 155 % of control | dose: 108.0 mg/kg/injection, schedule: Q01DX009 (sc), vehicle: other 163 % of control and 166 % of control | dose: 108.0 mg/kg/injection, schedule: Q08DX009 (sc), vehicle: none 155 % of control | dose: 180.0 mg/kg/injection, schedule: Q01DX009 (sc), vehicle: other 170 % of control and 177 % of control | dose: 180.0 mg/kg/injection, schedule: Q08DX009 (sc), vehicle: none 150 % of control | dose: 200.0 mg/kg/injection, schedule: Q01DX009 (ip), vehicle: other 150 % of control | dose: 200.0 mg/kg/injection, schedule: Q01DX009 (sc), vehicle: other 150 % of control | dose: 300.0 mg/kg/injection, schedule: Q01DX009 (sc), vehicle: other 150 % of control | dose: 300.0 mg/kg/injection, schedule: Q08DX009 (sc), vehicle: none 160 % of control
